{"source": "patent USRE42700E1", "about": "“Induction of apoptosis in cancer cells” (Sanford-Burnham Medical Research Institute, priority 2001, dated 2011)", "key": {"[1]": {"test_system": "leukemic blasts from patients (AML or CML in blast crisis)", "assay": "apoptosis in primary cultures of patient leukemic blasts", "type": "cell-based, human", "experimental": "(§1) Cell Growth: IL-3-transfected M07e cells have been described by Thacker, D. J., et al., Leukemia 8: 871-877 (1994). Cells were grown in RPMI supplemented with 5 percent heat-inactivated fetal bovine serum (FBS) and 25 μg/ml gentamycin in a […], 5% CO2, and 100% humidity environment. Leukemic cells were obtained from patients who met the criteria for the diagnosis of AML or CML in blast crisis (see Table 1). Studies were approved by the Wayne State University Institutional Review Board. Informed consent was obtained from all patients. Leukemic blasts from patients were isolated using Ficoll hypaque. Cells at the interface between plasma and red blood cells were diluted with sterile PBS, then layered over Ficoll hypaque (1.077 density), and the leukemic cells collected at the interface. The sample to be studied represented greater than 90% blasts. The patient leukemia samples were grown in RPMI medium supplemented with 10% FBS, gentamycin (25 μg/ml), IL-3 (20 ng/ml), SCF (25 ng/ml), GM-CSF (20 ng/ml) and G-CSF (20 ng/ml). Cell growth was assessed using a cell proliferation kit.\n(§2) Apoptosis Quantification: Staining of apoptotic cells was performed as described by Gavreli, Y., et al., (J. Cell. Biol. 119: 493-501 (1992)) and Whitacre, C. M., et al., (Cancer Res. 55: 3697-3701 (1995)). After 3-Cl-AHPC treatment, cells were harvested, washed with PBS and resuspended at 1×10^6 cells/ml. Cell suspensions (50 μl) were stained with […] of acridine orange solution ([…]) in PBS in the dark. Cells displaying fragmented DNA were detected using a fluorescent microscope. Apoptotic cells were also detected using a kit. Cells that incorporated fluorescein labeled deoxyuridine triphosphate were detected using flow cytometry."}, "[2]": {"test_system": "acute promyelocytic leukemia (APL)", "details": "cited from earlier work"}, "[3]": {"test_system": "Human Breast Cancer Cells", "assay": "apoptosis induction / cell death in breast cancer cells (all lines)", "type": "cell-based", "details": "10 μM"}, "[4]": {"test_system": "human acute megakaryocytic leukemia cell line M07e", "assay": "M07e apoptosis quantification", "type": "cell-based", "experimental": "as §2"}, "[5]": {"test_system": "human acute megakaryocytic leukemia cell line M07e", "assay": "M07e cell growth / proliferation", "type": "cell-based", "details": "varying concentrations over time", "experimental": "as §1"}, "[6]": {"test_system": "ERK, p38 and JNK kinases in M07e and patient leukemic cells", "assay": "activation of MAPK pathways (phospho-p38, phospho-ERK, phospho-JNK Western blots)", "type": "cell-based, human", "details": "50 μM inhibitor", "experimental": "(§3) Western Blots: Western blots were performed according to the protocol of Sheikh, M. S., et al., (Oncogene, 9: 3407-3415 (1994)). Logarithmically growing cells were treated with 3-Cl-AHPC for various times and cells were harvested and lysed in Laemmli lysis buffer (0.5 M Tris-HCl, pH 6.8, 0.002M EDTA, 10% glycerol, 10% sodium dodecyl sulfate (SDS), and 5% β-mercaptoethanol). Protein lysates (50 μg/lane) were electrophoresed on 12% SDS-polyacrylamide gels and transferred to nitrocellulose membranes. Membranes were blocked with 5% nonfat dried milk in PBS/0.5% Tween 20 and then incubated with the appropriate antibodies. Horseradish peroxidase-conjugated rabbit anti-mouse IgG was used as the secondary antibody, and bands were developed using the Amersham ECL non-radioactive method."}, "Bcl-XL in leukemic cells": {"test_system": "Bcl-XL in leukemic cells", "assay": "Bcl-XL cleavage by Western blot", "type": "cell-based, human", "details": "50 μM inhibitor with 1 μM 3-Cl-AHPC, 24 hours", "experimental": "as §3"}, "[7]": {"test_system": "M07e or patient leukemia cells", "assay": "effect of kinase inhibitors on 3-Cl-AHPC-mediated apoptosis", "type": "cell-based, human", "details": "at concentrations inhibiting p38 or ERK activation", "protocol": "After 3-Cl-AHPC treatment, cells were harvested, washed with PBS and resuspended at 1×10^6 cells/ml. Cell suspensions (50 μl) were stained with 5 ml of acridine orange solution (100 mg/ml) in PBS in the dark. Cells displaying fragmented DNA were detected using a fluorescent microscope. Apoptotic cells were also detected using a kit. Cells that incorporated fluorescein labeled deoxyuridine triphosphate were detected using flow cytometry."}, "[8]": {"test_system": "ALL cells obtained from patients", "details": "background section; cited from earlier work"}, "[9]": {"test_system": "mouse mammary adenocarcinoma 16/C", "assay": "mouse mammary adenocarcinoma 16/C in syngeneic female C3H mice", "experimental": "The ability of 3-Cl-AHPC to inhibit the in vivo growth of breast carcinoma cells was tested using syngeneic mouse mammary and human breast adenocarcinoma SCID xenograft models."}, "cell line K562": {"test_system": "cell line K562", "details": "cited from earlier work"}, "RXRs": {"test_system": "RXRs", "details": "cited from earlier work"}, "RAR subtype α": {"target": "RAR subtype α (Homo sapiens, UniProt P10276)", "sequence (P10276 whole entry)": "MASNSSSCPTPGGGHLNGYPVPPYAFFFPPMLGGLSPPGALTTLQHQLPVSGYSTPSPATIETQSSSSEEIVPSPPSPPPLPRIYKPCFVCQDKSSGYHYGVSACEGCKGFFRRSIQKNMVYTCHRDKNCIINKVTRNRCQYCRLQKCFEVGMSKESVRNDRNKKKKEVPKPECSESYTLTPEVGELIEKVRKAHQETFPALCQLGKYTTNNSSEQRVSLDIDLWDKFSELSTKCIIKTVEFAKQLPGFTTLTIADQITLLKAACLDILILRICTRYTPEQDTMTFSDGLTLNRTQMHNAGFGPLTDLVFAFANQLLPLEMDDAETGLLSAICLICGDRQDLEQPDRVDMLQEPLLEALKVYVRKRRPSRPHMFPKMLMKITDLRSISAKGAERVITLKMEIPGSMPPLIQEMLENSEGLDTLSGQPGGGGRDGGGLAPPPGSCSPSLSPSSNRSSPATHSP", "details": "cited from earlier work"}, "AML cells": {"test_system": "AML cells", "assay": "growth of AML cells in SCID mice", "type": "in vivo, mouse"}, "RARγ": {"target": "RARγ (Homo sapiens, UniProt P13631)", "sequence (P13631 whole entry, species assumed)": "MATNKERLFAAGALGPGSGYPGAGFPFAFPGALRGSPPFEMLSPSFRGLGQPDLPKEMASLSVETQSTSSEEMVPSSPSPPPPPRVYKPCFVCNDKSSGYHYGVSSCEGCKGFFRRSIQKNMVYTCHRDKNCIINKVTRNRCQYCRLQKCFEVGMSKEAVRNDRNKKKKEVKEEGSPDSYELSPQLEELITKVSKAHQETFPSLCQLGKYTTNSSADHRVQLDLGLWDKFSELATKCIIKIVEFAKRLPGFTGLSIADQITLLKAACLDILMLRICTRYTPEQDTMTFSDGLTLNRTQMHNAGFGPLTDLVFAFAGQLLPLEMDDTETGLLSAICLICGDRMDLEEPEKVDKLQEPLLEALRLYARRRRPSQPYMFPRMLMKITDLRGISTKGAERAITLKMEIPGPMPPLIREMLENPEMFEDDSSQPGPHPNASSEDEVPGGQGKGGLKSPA", "details": "1 μM; cited from earlier work"}, "RARβ": {"target": "RARβ (Homo sapiens, UniProt P10826)", "sequence (P10826 whole entry, species assumed)": "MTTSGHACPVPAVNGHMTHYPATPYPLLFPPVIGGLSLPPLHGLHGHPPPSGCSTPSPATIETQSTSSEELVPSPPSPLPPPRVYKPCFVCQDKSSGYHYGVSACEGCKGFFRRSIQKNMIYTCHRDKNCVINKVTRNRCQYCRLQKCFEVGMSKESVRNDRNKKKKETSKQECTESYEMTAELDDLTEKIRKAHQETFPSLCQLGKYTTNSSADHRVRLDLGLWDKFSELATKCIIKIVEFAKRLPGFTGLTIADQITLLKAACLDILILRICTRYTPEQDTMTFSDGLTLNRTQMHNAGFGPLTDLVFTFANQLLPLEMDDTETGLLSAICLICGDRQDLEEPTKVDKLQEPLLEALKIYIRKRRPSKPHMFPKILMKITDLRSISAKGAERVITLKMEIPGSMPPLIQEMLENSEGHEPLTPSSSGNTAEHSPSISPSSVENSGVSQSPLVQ", "details": "1 μM; cited from earlier work"}, "cell line ALL-REH": {"test_system": "cell line ALL-REH", "details": "ALL-REH cells; cited from earlier work"}, "[10]": {"test_system": "human leukemia cell line HL-60R", "details": "cited from earlier work"}, "[11]": {"test_system": "p38 and JNK kinases (HL-60R human leukemia cell line)", "details": "cited from earlier work"}, "[12]": {"details": "total dose 133 mg/kg, days 1, 2, 5-9"}, "[13]": {"details": "total dose 150 mg/kg, days 1, 2, 7-9"}}, "note": "Peptide text beside a SMILES is read from it. * marks the point of attachment. Cbz = O=C(OCc1ccccc1)*; CH2F = FC*", "data": [{"smiles": "Cc1cc(/C=C/C(=O)O)ccc1-c1ccc(O)c(C23CC4CC(CC(C4)C2)C3)c1", "note": "[Example 3, (E)-4-[3-(1-Adamantyl)-4-hydroxyphenyl]-3-methylcinnamic acid]", "values": [{"measurement": "melting point", "result": "232 to 234", "unit": "°C"}]}, {"smiles": "CC1=C(/C=C/C(C)=C/C=C/C(C)=C/C(=O)O)C(C)(C)CCC1", "note": "[tRA, trans-retinoic acid, reference compound]", "values": [{"measurement": "induction of apoptosis", "setting": "[1]; 1 μM, 11 primary cultures", "result": "did not induce apoptosis"}, {"measurement": "proliferation and apoptosis of primary human AML cultures (FIG. 13)", "setting": "[1]; non-APL AML samples", "result": "had no effect"}, {"measurement": "patients achieving a complete remission", "setting": "[2]", "result": 90, "unit": "%"}, {"measurement": "killing of breast carcinoma cells", "setting": "[3]", "result": "did not kill the cells"}, {"measurement": "inhibition of proliferation", "setting": "[4]", "result": "did not significantly inhibit M07e proliferation (FIG. 2C) or induce apoptosis"}, {"measurement": "inhibition of proliferation", "setting": "[5]", "result": "did not significantly inhibit M07e proliferation"}]}, {"smiles": "Cc1cc(/C=C/C(=O)O)cc(C)c1-c1ccc(O)c(C23CC4CC(CC(C4)C2)C3)c1", "note": "[Example 4, (E)-4-[3-(1-Adamantyl)-4-hydroxyphenyl]-3,5-dimethylcinnamic acid]", "values": [{"measurement": "melting point", "result": "127 to 129", "unit": "°C"}]}, {"smiles": "COC(=O)C[C@H](NC(=O)[C@H](C)NC(=O)[C@@H](NC(=O)OCc1ccccc1)C(C)C)C(=O)CF", "note": "[ZVAD-fmk] (Cbz-Val-Ala-Asp(OMe)-CH2F)", "values": [{"measurement": "effect on 3-Cl-AHPC activation of JNK", "setting": "[6]", "result": "not inhibited"}, {"measurement": "effect on 3-Cl-AHPC activation of p38 and ERK", "setting": "[6]", "result": "prevent their activation by 3-Cl-AHPC"}, {"measurement": "effect on 3-Cl-AHPC-mediated Bcl-XL cleavage", "setting": "Bcl-XL in leukemic cells", "result": "inhibited Bcl-XL cleavage"}]}, {"smiles": "O=C(O)/C=C/c1ccc(-c2ccc(O)c(C34CC5CC(CC(C5)C3)C4)c2)cc1Cl", "note": "[Example 2, (E)-4-[3-(1-Adamantyl)-4-hydroxyphenyl]-2-chlorocinnamic acid]", "values": [{"measurement": "melting point", "result": "276 to 278", "unit": "°C"}]}, {"smiles": "COc1cccc(-c2cc(=O)c3ccccc3o2)c1N", "note": "[PD98059]", "values": [{"measurement": "effect on 3-Cl-AHPC-mediated apoptosis", "setting": "[7]", "result": "did not inhibit or enhance 3-Cl-AHPC-mediated apoptosis"}]}, {"smiles": "O=C(O)c1ccc2cc(-c3ccc(O)c(C45CC6CC(CC(C6)C4)C5)c3)ccc2c1", "note": "[AHPN, 6-[3-(1-adamantyl)-4-hydroxyphenyl]-2-naphthalenecarboxylic acid]", "values": [{"measurement": "apoptosis of ALL cells obtained from patients", "setting": "[8]", "result": "induced apoptosis"}, {"measurement": "% body wt. loss", "setting": "[9]; total dose 99 mg/kg, days 1-9", "result": "−4", "unit": "%"}, {"measurement": "Drug deaths", "setting": "[9]; total dose 99 mg/kg, days 1-9", "result": "0/5"}, {"measurement": "T/C %", "setting": "[9]; total dose 99 mg/kg, days 1-9", "result": 47, "unit": "%"}, {"measurement": "% body wt. loss", "setting": "[9]; [12]", "result": "−11", "unit": "%"}, {"measurement": "Drug deaths", "setting": "[9]; [12]", "result": "0/5"}, {"measurement": "Log cell kill", "setting": "[9]; [12]", "result": 0.49}, {"measurement": "T/C %", "setting": "[9]; [12]", "result": 39, "unit": "%"}, {"measurement": "% body wt. loss", "setting": "[9]; [13]", "result": "−21", "unit": "%"}, {"measurement": "Drug deaths", "setting": "[9]; [13]", "result": "1/5"}, {"measurement": "Log cell kill", "setting": "[9]; [13]", "result": 0.63}, {"measurement": "T/C %", "setting": "[9]; [13]", "result": 30, "unit": "%"}, {"measurement": "apoptosis of K562 cells (resistant to tRA)", "setting": "cell line K562", "result": "results in apoptosis"}, {"measurement": "binding to the RXRs", "setting": "RXRs", "result": "does not bind"}, {"measurement": "binding and transactivation of RAR subtype α", "setting": "RAR subtype α", "result": "extremely poor binder and transactivator"}, {"measurement": "treated mice tumor-free more than 150 days (considered cured)", "setting": "AML cells; five treated mice", "result": "one out of the five"}, {"measurement": "Tumor growth inhibition", "setting": "AML cells; treated SCID mice", "result": 85.7, "unit": "%"}, {"measurement": "growth delay", "setting": "AML cells; treated SCID mice", "result": 21, "unit": "days"}, {"measurement": "log cell kill", "setting": "AML cells; treated SCID mice", "result": 2.1}, {"measurement": "binding and transactivation of RARγ", "setting": "RARγ", "result": "binds and transactivates"}, {"measurement": "binding and transactivation of RARβ", "setting": "RARβ", "result": "binds and transactivates"}, {"measurement": "caspase 3 activity", "setting": "cell line ALL-REH", "result": "stimulation of caspase 3 activity"}, {"measurement": "apoptosis of HL-60R cells (lack functional RARs)", "setting": "[10]", "result": "results in apoptosis"}, {"measurement": "p38 and JNK activation", "setting": "[11]; HL-60R human leukemia cell line", "result": "p38 and JNK activation"}, {"measurement": "time to activation of the p38 and JNK kinases", "setting": "[11]", "result": "≤ 1", "unit": "h"}]}]}
